From patent US12691182B2, “Maytansinoid derivatives, conjugates thereof, and methods of use” (priority 2016, dated 2026) come the findings set out here.

Common to all, as to format: cell-based
For one test, the system named is SKBR3 (Her2+) cells. Put plainly: In vitro cytotoxicity assay, SKBR3 cells (CCK8 viability). The note with it: naked payload, SKBr-3 cells, 3 days; for SKBr-3 % kill: % kill reported for the highest dose; for IC50: CCK8. The procedure: (§1) In this Example, the ability of various antibody-drug conjugates and naked payloads to kill antigen-expressing tumor cells in vitro was assessed.
(§2) SKBR3 (Her2+) cells were seeded in 96 well plates at 8000 cells per well in complete growth media and grown overnight. For cell viability curves, serially diluted conjugates or naked payloads were added to the cells at final concentrations ranging from 100 nM to 5 pM and incubated for 3 days. To measure viability, cells were incubated with CCK8 (Dojindo) for the final 2 hours and the absorbance at 450 nm (OD450) was determined on a Victor (Perkin Elmer). Background OD450 levels determined from digitonin (40 nM) treated cells were subtracted from all wells and viability is expressed as a percentage of the untreated controls. IC50 values were determined from a four-parameter logistic equation over a 10-point response curve (GraphPad Prism). […] All curves and IC50 values are corrected for payload equivalents. The plot of % Cell Viability vs. Log 10 [M]
(§3) All IC50s are expressed in nM concentration and % kill is reported for the highest dose. All curves and IC50 values are corrected for payload equivalents. The plot of % Cell Viability vs. Log 10 [M]

Another test concerns C4-2 (STEAP2+) cells. Put plainly: In vitro cytotoxicity assay, C4-2 cells (CellTiter-Glo viability). The note with it: naked payload, 5 days; for C4-2 % kill: % kill reported for the highest dose; for IC50: CellTiter-Glo. The procedure:
as §1
C4-2 (STEAP2+) cells were seeded in 96 well plates at 4000 cells per well in complete growth media and grown overnight. For cell viability curves, serially diluted conjugates or naked payloads were added to the cells at final concentrations ranging from 100 nM to 5 pM and incubated for 5 days. To measure viability, cells were incubated with CellTiter-Glo reagents for 5 minutes and luminescence was determined on a Victor plate reader (PerkinElmer). IC50 values were determined from a four-parameter logistic equation over a 10-point response curve (GraphPad Prism).
as §3
On the technique in general: Cellular ATP, detected with luciferase, serves as a proxy for viable cell number.

Another test has as its system Ovcar3 (Muc16+) cells. Put plainly: In vitro cytotoxicity assay, Ovcar3 cells (CCK8 viability). To be noted: naked payload, 3 days; for Ovcar3 % kill: % kill reported for the highest dose; for IC50: CCK8. The procedure: as §1
as §2, with “Ovcar3 (Muc16+)” for “SKBR3 (Her2+)”, “3000” for “8000”
as §3

As a reminder, the IC50 is the concentration needed to halve the response being measured. Read a high IC50 as a need for much substance. In the case of `COc1cc(NC(=O)OC2CC(=O)N(C)c3cc(cc(OC)c3Cl)CC(C)=CC=CC(OC)C3(O)CC(OC(=O)N3)C(C)C3OC23C)ccc1N` (stereo not shown) [Compound 30j, Maytan-3-O-carbamoyl-N-(3-methoxy-4-amino)benzene], in the test on SKBR3 (Her2+) cells, the SKBr-3 % kill entry was “**** (**** indicates % kill greater than, or equal to, 95 and less than 99)”; the IC50 is 0.1 to 1 nM. Moreover, in the test with C4-2 (STEAP2+) cells, the C4-2 % kill result is “*** (*** indicates % kill greater than, or equal to, 90 and less than 95)”; the IC50 was no less than 10 nM. Also, in the test with Ovcar3 (Muc16+) cells, the Ovcar3 % kill entry is “** (** indicates % kill greater than, or equal to, 85 and less than 90)”; the half-maximal inhibitory concentration (IC50) is 1 to 10 nM.

As for `COc1cc2cc(c1Cl)N(C)C(=O)CC(OC(=O)Nc1ccc(N)c(C(F)(F)F)c1)C1(C)OC1C(C)C1CC(O)(NC(=O)O1)C(OC)C=CC=C(C)C2` (stereo not shown) [Compound 30l, Maytan-3-O-carbamoyl-N-(3-trifluoromethyl-4-amino)benzene], the SKBr-3 % kill result in the test on SKBR3 (Her2+) cells was “***** (***** indicates % kill greater than, or equal to, 99)”. The 50% inhibitory concentration (IC50) is 0.1 to 1 nM with SKBR3 (Her2+) cells, no less than 10 nM in the test with C4-2 (STEAP2+) cells and 0.1 to 1 nM with Ovcar3 (Muc16+) cells. The Ovcar3 % kill entry in the test with Ovcar3 (Muc16+) cells was “*** (*** indicates % kill greater than, or equal to, 90 and less than 95)”.

On to `COc1cc2cc(c1Cl)N(C)C(=O)C[C@H](OC(=O)Nc1ccc(N)cc1Br)[C@]1(C)O[C@H]1[C@H](C)[C@@H]1C[C@@](O)(NC(=O)O1)[C@H](OC)/C=C/C=C(\C)C2` [Compound 30m, Maytan-3-O-carbamoyl-N-(2-bromo-4-amino)benzene], for which, in the test on SKBR3 (Her2+) cells, the SKBr-3 % kill entry was “***** (***** indicates % kill greater than, or equal to, 99)” and the IC50 lay within 0.01 to 0.1 nM. In the test with C4-2 (STEAP2+) cells, the C4-2 % kill result was “***** (***** indicates % kill greater than, or equal to, 99)” and the IC50 lay within 0.01 to 0.1 nM. For the same compound, in the test on Ovcar3 (Muc16+) cells, the Ovcar3 % kill entry was “** (** indicates % kill greater than, or equal to, 85 and less than 90)”; the 50% inhibitory concentration (IC50) lay within 0.001 to 0.01 nM.

For “Maytan-3-O-carbamoyl-N-(2-methoxy-4-amino)benzene [Compound 30k]”, in the test on SKBR3 (Her2+) cells, the SKBr-3 % kill entry was “***** (***** indicates % kill greater than, or equal to, 99)” and the IC50 lay in the range of 1 to 10 nM. In the test with C4-2 (STEAP2+) cells, this compound yielded an IC50 of no less than 10 nM. Further, in the test on Ovcar3 (Muc16+) cells, the Ovcar3 % kill result was “*** (*** indicates % kill greater than, or equal to, 90 and less than 95)”; the concentration for half-maximal inhibition (IC50) lay in the range of 0.1 to 1 nM.
